Source: PubChem BioAssay (NCI)
Values joined by “and” are separate entries in the source; they are usually repeats but may differ in a detail not shown here. Equal entries are not always repeated.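 Briefly, cells in 96-well plates were exposed to five compound concentrations for 48 h, and endpoints were estimated by linear interpolation. The concentration for 50% growth inhibition is given as GI50. TGI: concentration producing complete growth inhibition.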

What was measured:
Assay in all cases: growth of human tumour cells (NCI), 48 h
K-562 leukemia = test system: K-562 leukemia
LOX IMVI melanoma = test system: LOX IMVI melanoma
OVCAR-8 ovarian = test system: OVCAR-8 ovarian
RPMI-8226 leukemia = test system: RPMI-8226 leukemia
SF-295 CNS = test system: SF-295 CNS
SF-539 CNS = test system: SF-539 CNS
SN12C renal = test system: SN12C renal
U251 CNS = test system: U251 CNS
UACC-257 melanoma = test system: UACC-257 melanoma
BT-549 breast = test system: BT-549 breast
MDA-N = test system: MDA-N
NCI-H23 lung = test system: NCI-H23 lung
NCI/ADR-RES ovarian = test system: NCI/ADR-RES ovarian
MDA-MB-231 breast = test system: MDA-MB-231 breast
SK-OV-3 ovarian = test system: SK-OV-3 ovarian

O=c1cc(-c2ccc[nH]2)[nH]c2cc3c(cc12)OCO3
TGI (K-562 leukemia): > 100 µM
TGI (LOX IMVI melanoma): > 100 µM
TGI (OVCAR-8 ovarian): > 100 µM
TGI (RPMI-8226 leukemia): > 100 µM
GI50 (SF-295 CNS): 33.8 µM
TGI (SF-295 CNS): > 100 µM
TGI (SF-539 CNS): 84.6 µM
TGI (SN12C renal): > 100 µM
TGI (U251 CNS): > 100 µM
TGI (UACC-257 melanoma): > 100 µM

COc1ccc(-c2c(C(C)=O)c(-c3ccccc3)n(C3OC(COC(C)=O)C(OC(C)=O)C(OC(C)=O)C3OC(C)=O)c(=S)c2C#N)cc1O (stereo unspecified)
TGI (BT-549 breast): 72.2 µM
TGI (K-562 leukemia): > 100 µM
TGI (LOX IMVI melanoma): > 100 µM
TGI (MDA-N): 81.5 µM and > 100 µM
TGI (NCI-H23 lung): > 100 µM
TGI (NCI/ADR-RES ovarian): > 100 µM
GI50 (RPMI-8226 leukemia): 11.3 µM and 47.5 µM
TGI (RPMI-8226 leukemia): 61.3 µM and > 100 µM
TGI (SF-295 CNS): > 100 µM
TGI (SN12C renal): > 100 µM
TGI (U251 CNS): > 100 µM
TGI (UACC-257 melanoma): > 100 µM

CC1(C)CC(=O)C2=C(C1)N(c1ccccc1)C1(O)C=CC(=O)C3=C(O)c4ccccc4C(=O)C321 (stereo unspecified)
TGI (BT-549 breast): 67.9 µM
TGI (K-562 leukemia): > 100 µM
TGI (LOX IMVI melanoma): 56.3 µM
TGI (MDA-MB-231 breast): > 100 µM
TGI (NCI-H23 lung): 84 µM
TGI (NCI/ADR-RES ovarian): > 100 µM
TGI (OVCAR-8 ovarian): > 100 µM
TGI (RPMI-8226 leukemia): > 100 µM
TGI (SF-295 CNS): > 100 µM
TGI (SF-539 CNS): 70.6 µM
TGI (SK-OV-3 ovarian): > 100 µM
TGI (SN12C renal): > 100 µM
TGI (U251 CNS): > 100 µM
TGI (UACC-257 melanoma): > 100 µM

[N-]=[N+]=NC(c1cn(C2CC(O)C(CO)O2)c(=O)[nH]c1=O)C(I)I (stereo unspecified)
TGI (K-562 leukemia): > 100 µM
TGI (LOX IMVI melanoma): > 100 µM
TGI (NCI-H23 lung): > 100 µM
TGI (OVCAR-8 ovarian): > 100 µM
TGI (RPMI-8226 leukemia): > 100 µM
TGI (SF-295 CNS): > 100 µM
TGI (SF-539 CNS): > 100 µM
TGI (SK-OV-3 ovarian): > 100 µM
TGI (SN12C renal): > 100 µM
TGI (U251 CNS): > 100 µM
TGI (UACC-257 melanoma): > 100 µM

O=C(O)C1C2CCC(C2)C1c1ccccc1 (stereo unspecified)
TGI (K-562 leukemia): > 100 µM
TGI (LOX IMVI melanoma): > 100 µM
TGI (MDA-MB-231 breast): > 100 µM
TGI (MDA-N): > 100 µM
TGI (NCI-H23 lung): > 100 µM
TGI (NCI/ADR-RES ovarian): > 100 µM
TGI (OVCAR-8 ovarian): > 100 µM
TGI (RPMI-8226 leukemia): > 100 µM
TGI (SF-295 CNS): > 100 µM
TGI (SF-539 CNS): > 100 µM
TGI (SK-OV-3 ovarian): > 100 µM
TGI (SN12C renal): > 100 µM
TGI (U251 CNS): > 100 µM
TGI (UACC-257 melanoma): > 100 µM

OC1NC2CC3NC(O)C(O)NC3CC2NC1O (stereo unspecified)
TGI (K-562 leukemia): > 100 µM
TGI (LOX IMVI melanoma): > 100 µM
TGI (MDA-MB-231 breast): > 100 µM
TGI (MDA-N): > 100 µM
TGI (NCI-H23 lung): > 100 µM
TGI (NCI/ADR-RES ovarian): > 100 µM
TGI (OVCAR-8 ovarian): > 100 µM
TGI (RPMI-8226 leukemia): > 100 µM
TGI (SF-295 CNS): > 100 µM
TGI (SF-539 CNS): > 100 µM
TGI (SK-OV-3 ovarian): > 100 µM
TGI (SN12C renal): > 100 µM
TGI (U251 CNS): > 100 µM
TGI (UACC-257 melanoma): > 100 µM

O=C(O)C1Cc2ccccc2OC1=O (stereo unspecified)
TGI (BT-549 breast): > 100 µM
TGI (K-562 leukemia): > 100 µM
TGI (MDA-MB-231 breast): > 100 µM
TGI (NCI-H23 lung): > 100 µM
TGI (NCI/ADR-RES ovarian): > 100 µM
TGI (OVCAR-8 ovarian): > 100 µM
TGI (RPMI-8226 leukemia): > 100 µM
TGI (SF-295 CNS): > 100 µM
TGI (SF-539 CNS): > 100 µM
TGI (SK-OV-3 ovarian): > 100 µM
TGI (SN12C renal): > 100 µM
TGI (U251 CNS): > 100 µM
TGI (UACC-257 melanoma): > 100 µM

Oc1cccc2nc3cc(CN4CCOCC4)c(CN4CCOCC4)cc3nc12
TGI (K-562 leukemia): > 100 µM
TGI (LOX IMVI melanoma): > 100 µM
TGI (NCI-H23 lung): > 100 µM
TGI (OVCAR-8 ovarian): > 100 µM
TGI (SF-295 CNS): > 100 µM
TGI (SF-539 CNS): > 100 µM
TGI (SK-OV-3 ovarian): > 100 µM
TGI (SN12C renal): > 100 µM
TGI (U251 CNS): > 100 µM
TGI (UACC-257 melanoma): > 100 µM

Cc1ccc(C(=O)NC(C)C)cc1N=NN(C)C
TGI (LOX IMVI melanoma): > 100 µM
TGI (NCI-H23 lung): > 100 µM
TGI (OVCAR-8 ovarian): > 100 µM
TGI (SF-295 CNS): > 100 µM
TGI (SF-539 CNS): > 100 µM
TGI (SN12C renal): > 100 µM
TGI (U251 CNS): > 100 µM
TGI (UACC-257 melanoma): > 100 µM

Cc1noc(C)c1N=Nc1ccc2nonc2c1N
TGI (LOX IMVI melanoma): > 100 µM
TGI (MDA-MB-231 breast): > 100 µM
TGI (MDA-N): > 100 µM
TGI (NCI-H23 lung): > 100 µM
TGI (NCI/ADR-RES ovarian): > 100 µM
TGI (OVCAR-8 ovarian): > 100 µM
TGI (RPMI-8226 leukemia): > 100 µM
TGI (SF-295 CNS): > 100 µM
TGI (SF-539 CNS): 92.5 µM
TGI (SK-OV-3 ovarian): > 100 µM
TGI (SN12C renal): > 100 µM
TGI (UACC-257 melanoma): > 100 µM

COc1cc(C(=O)OC2CC(C)=CC[C@@]3(C)CC[C@](O)(C(C)C)C23)ccc1O (stereo partly specified)
TGI (K-562 leukemia): 38.3 µM
TGI (LOX IMVI melanoma): 30.6 µM
TGI (MDA-MB-231 breast): 30.5 µM
TGI (MDA-N): 35.2 µM
TGI (NCI-H23 lung): 32.6 µM
TGI (NCI/ADR-RES ovarian): 37.6 µM
TGI (OVCAR-8 ovarian): 36.6 µM
TGI (RPMI-8226 leukemia): 53.1 µM
TGI (SF-295 CNS): 51.9 µM
TGI (SF-539 CNS): 29.7 µM
TGI (SK-OV-3 ovarian): 29.1 µM
TGI (SN12C renal): 37.2 µM
TGI (U251 CNS): 67 µM
TGI (UACC-257 melanoma): 29.6 µM

CCOC(=O)CC(=Nc1cc(C)on1)N(CC)CC
TGI (K-562 leukemia): > 100 µM
TGI (NCI-H23 lung): > 100 µM
TGI (OVCAR-8 ovarian): > 100 µM
TGI (RPMI-8226 leukemia): > 100 µM
TGI (SF-539 CNS): > 100 µM
TGI (SK-OV-3 ovarian): > 100 µM
TGI (SN12C renal): > 100 µM
TGI (U251 CNS): > 100 µM

Cc1cc(C)c(N)c(C)c1N
TGI (K-562 leukemia): > 100 µM
TGI (LOX IMVI melanoma): > 100 µM
TGI (NCI-H23 lung): > 100 µM
TGI (OVCAR-8 ovarian): > 100 µM
TGI (RPMI-8226 leukemia): > 100 µM
TGI (SF-295 CNS): > 100 µM
TGI (SF-539 CNS): > 100 µM
TGI (SK-OV-3 ovarian): > 100 µM
TGI (SN12C renal): > 100 µM
TGI (U251 CNS): > 100 µM
TGI (UACC-257 melanoma): > 100 µM

CC(C)(CO)NC(=O)c1cccc(C(=O)NC(C)(C)CO)c1Br
TGI (BT-549 breast): > 100 µM
TGI (K-562 leukemia): > 100 µM
TGI (LOX IMVI melanoma): > 100 µM
TGI (MDA-MB-231 breast): > 100 µM
TGI (NCI-H23 lung): > 100 µM
TGI (NCI/ADR-RES ovarian): > 100 µM
TGI (OVCAR-8 ovarian): > 100 µM
TGI (RPMI-8226 leukemia): > 100 µM
TGI (SF-539 CNS): > 100 µM
TGI (U251 CNS): > 100 µM
TGI (UACC-257 melanoma): > 100 µM

O=C(/C=C\c1ccc(OCCCCCC[P+](c2ccccc2)(c2ccccc2)c2ccccc2)cc1)c1ccc2c(c1)OCCO2
GI50 (K-562 leukemia): 0.494 µM
TGI (K-562 leukemia): > 100 µM
GI50 (NCI/ADR-RES ovarian): 4.31 µM
TGI (NCI/ADR-RES ovarian): > 100 µM
GI50 (RPMI-8226 leukemia): 0.296 µM
TGI (RPMI-8226 leukemia): 1.3 µM
GI50 (SF-295 CNS): 1.78 µM
TGI (SF-295 CNS): 3.46 µM
GI50 (SK-OV-3 ovarian): 1.58 µM
TGI (SK-OV-3 ovarian): 3.88 µM

CC[S+](C)c1ccc(-c2c3nc(c(-c4ccc([S+](C)CC)cc4)c4ccc([nH]4)c(-c4ccc([S+](C)CC)cc4)c4nc(c(-c5ccc([S+](C)CC)cc5)c5ccc2[nH]5)C=C4)C=C3)cc1 (stereo unspecified)
TGI (K-562 leukemia): > 100 µM
TGI (LOX IMVI melanoma): 23.3 µM
TGI (NCI-H23 lung): > 100 µM
TGI (OVCAR-8 ovarian): > 100 µM
TGI (RPMI-8226 leukemia): 41 µM
TGI (SF-295 CNS): > 100 µM
TGI (SF-539 CNS): > 100 µM
TGI (SK-OV-3 ovarian): 95.5 µM
TGI (SN12C renal): 60.4 µM
TGI (U251 CNS): > 100 µM
TGI (UACC-257 melanoma): > 100 µM

COc1ccc(C2c3c(-c4ccccc4)nn(-c4ccccc4)c3Oc3ncn(N)c(=N)c32)cc1OC (stereo unspecified)
TGI (BT-549 breast): 15 µM
TGI (K-562 leukemia): > 100 µM
TGI (MDA-MB-231 breast): 3.8 µM
TGI (NCI-H23 lung): 6.66 µM
TGI (NCI/ADR-RES ovarian): 6.66 µM
TGI (OVCAR-8 ovarian): 5.89 µM
TGI (RPMI-8226 leukemia): > 25.1 µM
TGI (SF-295 CNS): 4.34 µM
TGI (SF-539 CNS): 2.6 µM
TGI (SK-OV-3 ovarian): 21.6 µM
TGI (SN12C renal): 8.45 µM
TGI (U251 CNS): > 100 µM
TGI (UACC-257 melanoma): 3.82 µM

COc1ccc2c(c1)Cc1c-2[nH]c2cc3c(cc2c1=O)OCO3
TGI (K-562 leukemia): > 100 µM
TGI (LOX IMVI melanoma): 34.2 µM
TGI (NCI-H23 lung): 48.2 µM
TGI (OVCAR-8 ovarian): > 100 µM
TGI (RPMI-8226 leukemia): 35.8 µM
TGI (SF-295 CNS): 51.7 µM
TGI (SF-539 CNS): 30.6 µM
TGI (SK-OV-3 ovarian): 95.8 µM
TGI (SN12C renal): > 100 µM
TGI (U251 CNS): 23.5 µM
